# Values of other authors as cited in PubChem BioAssay AID1259409 (Chemical Carcinogenesis Research Information System (CCRIS), 2018).
# Tested on: rodent chemically induced tumor inhibition, incidence and multiplicity
# Assay: CCRIS tumor inhibitor studies
# Settings: Promoter: NONE USED
structure (smiles),measurement,setting,value
Cc1cc(C(C)(C)C)c(O)c(C(C)(C)C)c1,"tumour outcome (control, treated, inhibition, significance)","Carcinogen: N-BIS(2-HYDROXYPROPYL)NITROSAMINE, 53609-64-6, Dose [Inhibitor]: 0, 1% IN DIET FOR 30 WK BEGINNING POST CARCINOGEN TREATMENT (STUDY DURATION: 32 WK), Route [Inhibitor]: ORAL, Species: RAT, Strain/Sex: F344/MALE, Target Tissue: Type of Lesion: LUNG: ADENOMA, Dose [Carcinogen]: 0.1% IN DRINKING WATER FOR 2 WK","100%, 85%, 15%, not calculated"
same,"tumour outcome (control, treated, inhibition, significance)","Carcinogen: N-BIS(2-HYDROXYPROPYL)NITROSAMINE, 53609-64-6, Dose [Inhibitor]: 0, 1% IN DIET FOR 30 WK BEGINNING POST CARCINOGEN TREATMENT (STUDY DURATION: 32 WK), Route [Inhibitor]: ORAL, Species: RAT, Strain/Sex: F344/MALE, Target Tissue: Type of Lesion: LUNG: CARCINOMA, Dose [Carcinogen]: 0.1% IN DRINKING WATER FOR 2 WK","45%, 5%, 89%, p<0.01"
same,"tumour outcome (control, treated, inhibition, significance)","Carcinogen: N-BIS(2-HYDROXYPROPYL)NITROSAMINE, 53609-64-6, Dose [Inhibitor]: 0, 1% IN DIET FOR 30 WK BEGINNING POST CARCINOGEN TREATMENT (STUDY DURATION: 32 WK), Route [Inhibitor]: ORAL, Species: RAT, Strain/Sex: F344/MALE, Target Tissue: Type of Lesion: THYROID: ADENOMA, Dose [Carcinogen]: 0.1% IN DRINKING WATER FOR 2 WK","5%, 60%, -1100%, not calculated"
same,"tumour outcome (control, treated, inhibition, significance)","Carcinogen: N-BIS(2-HYDROXYPROPYL)NITROSAMINE, 53609-64-6, Dose [Inhibitor]: 0, 1% IN DIET FOR 30 WK BEGINNING POST CARCINOGEN TREATMENT (STUDY DURATION: 32 WK), Route [Inhibitor]: ORAL, Species: RAT, Strain/Sex: F344/MALE, Target Tissue: Type of Lesion: THYROID: CARCINOMA, Dose [Carcinogen]: 0.1% IN DRINKING WATER FOR 2 WK","20%, 15%, 25%, not calculated"
same,"tumour outcome (control, treated, inhibition, significance)","Carcinogen: N-METHYL-N'-NITRO-N-NITROSOGUANIDINE, 70-25-7, N-ETHYL-N-HYDROXYETHYLNITROSAMINE, 13147-25-6, N-METHYLBENZYLNITROSAM, Carcinogen: N-METHYL-N'-NITRO-N-NITROSOGUANIDINE, 70-25-7, N-ETHYL-N-HYDROXYETHYLNITROSAMINE, 13147-25-6, N-METHYLBENZYLNITROSAM, Dose [Inhibitor]: 0, 0.7% IN DIET FOR 36 WK (STUDY DURATION: 36 WK), Route [Inhibitor]: ORAL, Species: RAT, Strain/Sex: F344/MALE, Target Tissue: Type of Lesion: COLON: CARCINOMA, Dose [Carcinogen]: 100 MG/KG BW MNNG ONCE, 750 MG/KG BW EHEN ONCE, 0.5 MG/KG BW MBN TWICE, 40 MG/KG BW DMH 4 TIMES, 0.05% DBN IN DRINKING W","10/18 (56%), 0/18 (0%), 100%, p<0.01"
same,"tumour outcome (control, treated, inhibition, significance)","Carcinogen: N-METHYL-N'-NITRO-N-NITROSOGUANIDINE, 70-25-7, N-ETHYL-N-HYDROXYETHYLNITROSAMINE, 13147-25-6, N-METHYLBENZYLNITROSAM, Carcinogen: N-METHYL-N'-NITRO-N-NITROSOGUANIDINE, 70-25-7, N-ETHYL-N-HYDROXYETHYLNITROSAMINE, 13147-25-6, N-METHYLBENZYLNITROSAM, Dose [Inhibitor]: 0, 0.7% IN DIET FOR 36 WK (STUDY DURATION: 36 WK), Route [Inhibitor]: ORAL, Species: RAT, Strain/Sex: F344/MALE, Target Tissue: Type of Lesion: KIDNEY: RENAL CELL TUMOR, Dose [Carcinogen]: 100 MG/KG BW MNNG ONCE, 750 MG/KG BW EHEN ONCE, 0.5 MG/KG BW MBN TWICE, 40 MG/KG BW DMH 4 TIMES, 0.05% DBN IN DRINKING W","8/18 (44%), 1/18 (6%), 86%, p<0.01"
same,outcome,"Carcinogen: N-METHYL-N'-NITRO-N-NITROSOGUANIDINE, 70-25-7, N-ETHYL-N-HYDROXYETHYLNITROSAMINE, 13147-25-6, N-METHYLBENZYLNITROSAM, Carcinogen: N-METHYL-N'-NITRO-N-NITROSOGUANIDINE, 70-25-7, N-ETHYL-N-HYDROXYETHYLNITROSAMINE, 13147-25-6, N-METHYLBENZYLNITROSAM, Dose [Inhibitor]: 0, 0.7% IN DIET FOR 36 WK (STUDY DURATION: 36 WK), Route [Inhibitor]: ORAL, Species: RAT, Strain/Sex: F344/MALE, Target Tissue: Type of Lesion: THYROID GLAND: ADENOMA OR CARCINOMA, Dose [Carcinogen]: 100 MG/KG BW MNNG ONCE, 750 MG/KG BW EHEN ONCE, 0.5 MG/KG BW MBN TWICE, 40 MG/KG BW DMH 4 TIMES, 0.05% DBN IN DRINKING W","0/18 (0%), 6/18 (33%), -333%, p<0.05"
same,"tumour outcome (control, treated, inhibition, significance)","Carcinogen: N-METHYL-N-NITROSOUREA, 684-93-5, Dose [Inhibitor]: 0.3% IN DIET FROM WEANING ONWARD (STUDY DURATION: 6 MO AFTER CARCINOGEN ADMINISTRATION), Route [Inhibitor]: ORAL, Species: RAT, Strain/Sex: SPRAGUE-DAWLEY/FEMALE, Target Tissue: Type of Lesion: MAMMARY GLAND: ADENOCARCINOMA, Dose [Carcinogen]: SINGLE INJECTION VIA DORSAL TAIL VEIN AT 5 MG/100 G BODY WEIGHT. MNU WAS WET IN 3% ACETIC ACID + DISSOLVED IN WATER (DOU","21/30 (70%), 22/30 (73%), -4%, not significant"
same,"tumour outcome (control, treated, inhibition, significance)","Carcinogen: N-METHYL-N-NITROSOUREA, 684-93-5, Dose [Inhibitor]: 0.3% IN HIGH POLYUNSATURATED FAT DIET DAILY STARTING 29 D BEFORE CARCINOGEN TREATMENT AND CONTINUING FOR THE DURATION OF, Route [Inhibitor]: ORAL, Species: RAT, Strain/Sex: SPRAGUE-DAWLEY/FEMALE, Target Tissue: Type of Lesion: MAMMARY GLAND: ADENOCARCINOMA, Dose [Carcinogen]: 5 MG/100 G BW ONCE AT 50 D OF AGE","70%, 73%, -4%, not calculated"
same,"tumour outcome (control, treated, inhibition, significance)","Carcinogen: URETHANE, 51-79-6, Dose [Inhibitor]: 0.75% IN DIET 1/WK FOR 24 HR AFTER OVERNIGHT FAST FOR 8 WK 1 WK AFTER CARCINOGEN TREATMENT (STUDY DURATION: 4 MO), Route [Inhibitor]: ORAL, Species: MOUSE, Strain/Sex: STRAIN-A/MALE, Target Tissue: Type of Lesion: LUNG: TYPE II ALVEOLAR CELL TUMORS, CLARA CELL TUMORS, Dose [Carcinogen]: 250 MG/KG, ONCE AT 8 WK OF AGE","85%, 91%, -7%, not significant"
same,"tumour outcome (control, treated, inhibition, significance)","Carcinogen: URETHANE, 51-79-6, Dose [Inhibitor]: 0.75% IN DIET 1/WK FOR 24 HR AFTER OVERNIGHT FAST FOR 8 WK 1 WK AFTER CARCINOGEN TREATMENT (STUDY DURATION: 4 MO), Route [Inhibitor]: ORAL, Species: MOUSE, Strain/Sex: STRAIN-A/MALE, Target Tissue: Type of Lesion: LUNG: TYPE II ALVEOLAR CELL TUMORS, CLARA CELL TUMORS, Dose [Carcinogen]: 500 MG/KG, ONCE AT 8 WK OF AGE","100%, 100%, 0%, not significant"
same,"tumour outcome (control, treated, inhibition, significance)","Carcinogen: URETHANE, 51-79-6, Dose [Inhibitor]: 0.75% IN DIET 1/WK FOR 24 HR AFTER OVERNIGHT FAST FOR 8 WK BEGINNING 1 WK POST CARCINOGEN TREATMENT (STUDY DURATION: 4 M, Route [Inhibitor]: ORAL, Species: MOUSE, Strain/Sex: STRAIN A/MALE, Target Tissue: Type of Lesion: LUNG: TYPE II ALVEOLAR CELL TUMORS, CLARA CELL TUMORS, Dose [Carcinogen]: 500 MG/KG, ONCE AT 8 WK OF AGE","100%, 97%, 3%, not significant"
same,outcome,"Carcinogen: URETHANE, 51-79-6, Dose [Inhibitor]: 0.75% IN DIET FOR 2 WK BEFORE CARCINOGEN TREATMENT (STUDY DURATION: 4 MO), Route [Inhibitor]: ORAL, Species: MOUSE, Strain/Sex: STRAIN-A/MALE, Target Tissue: Type of Lesion: LUNG: TYPE II ALVEOLAR CELL TUMORS, CLARA CELL TUMORS, Dose [Carcinogen]: 1000 MG/KG, ONCE","100%, 100%, o%, not significant"
same,"tumour outcome (control, treated, inhibition, significance)","Carcinogen: URETHANE, 51-79-6, Dose [Inhibitor]: 0.75% IN DIET, DAILY BEGINNING 1 D AFTER CARCINOGEN TREATMENT FOR 8 WK (STUDY DURATION: 4 MO), Route [Inhibitor]: ORAL, Species: MOUSE, Strain/Sex: STRAIN-A/MALE, Target Tissue: Type of Lesion: LUNG: TYPE II ALVEOLAR CELL TUMORS, CLARA CELL TUMORS, Dose [Carcinogen]: 250 MG/KG, ONCE AT 8 WK OF AGE","96%, 90%, 6%, not significant"
same,"tumour outcome (control, treated, inhibition, significance)","Carcinogen: URETHANE, 51-79-6, Dose [Inhibitor]: 0.75% IN DIET, DAILY BEGINNING 1 D AFTER CARCINOGEN TREATMENT FOR 8 WK (STUDY DURATION: 40 MO), Route [Inhibitor]: ORAL, Species: MOUSE, Strain/Sex: STRAIN-A/MALE, Target Tissue: Type of Lesion: LUNG: TYPE II ALVEOLAR CELL TUMORS, CLARA CELL TUMORS, Dose [Carcinogen]: 500 MG/KG, ONCE AT 8 WK OF AGE","100%, 100%, 0%, not significant"
same,"tumour outcome (control, treated, inhibition, significance)","Carcinogen: URETHANE, 51-79-6, Dose [Inhibitor]: 300 MG/KG 1 WK AFTER CARCINOGEN DOSE 1/WK FOR 8 WK (STUDY DURATION: 4 MO), Route [Inhibitor]: INTRAPERITONEAL, Species: MOUSE, Strain/Sex: STRAIN-A/MALE, Target Tissue: Type of Lesion: LUNG: TYPE II ALVEOLAR CELL TUMORS, CLARA CELL TUMORS, Dose [Carcinogen]: 500 MG/KG, ONCE AT 8 WK OF AGE","97%, 100%, -3%, not significant"
